# Biological target: T1, human αVβ6 (Homo sapiens, UniProt P06756+P18564)
# T1 construct: purchased R & D systems 3817-AV
# Assay: human αVβ6 HTRF binding assay
# Protocol: All binding assays used the HTRF (homogeneous time resolved fluorescence) technology from Cisbio International, therefore all assays are described as HTRF binding assays. The assay results for the Examples are listed above together with the characterization data. The HTRF binding assays are established for the following integrins: human αVβ6, human αVβ1, human αVβ3, human αVβ5, and human αVβ8. All assays used the following assay buffer: 20 mM Tris, pH 7.4, 1 mM MgCl2, 1 mM MnCl2, 0.01% Tween 20, and 0.01% BSA. Alternatively, a SPA-based assay was used for evaluation of receptor binding.
# […]
# T1 sequence (P06756 31-992 limits assumed): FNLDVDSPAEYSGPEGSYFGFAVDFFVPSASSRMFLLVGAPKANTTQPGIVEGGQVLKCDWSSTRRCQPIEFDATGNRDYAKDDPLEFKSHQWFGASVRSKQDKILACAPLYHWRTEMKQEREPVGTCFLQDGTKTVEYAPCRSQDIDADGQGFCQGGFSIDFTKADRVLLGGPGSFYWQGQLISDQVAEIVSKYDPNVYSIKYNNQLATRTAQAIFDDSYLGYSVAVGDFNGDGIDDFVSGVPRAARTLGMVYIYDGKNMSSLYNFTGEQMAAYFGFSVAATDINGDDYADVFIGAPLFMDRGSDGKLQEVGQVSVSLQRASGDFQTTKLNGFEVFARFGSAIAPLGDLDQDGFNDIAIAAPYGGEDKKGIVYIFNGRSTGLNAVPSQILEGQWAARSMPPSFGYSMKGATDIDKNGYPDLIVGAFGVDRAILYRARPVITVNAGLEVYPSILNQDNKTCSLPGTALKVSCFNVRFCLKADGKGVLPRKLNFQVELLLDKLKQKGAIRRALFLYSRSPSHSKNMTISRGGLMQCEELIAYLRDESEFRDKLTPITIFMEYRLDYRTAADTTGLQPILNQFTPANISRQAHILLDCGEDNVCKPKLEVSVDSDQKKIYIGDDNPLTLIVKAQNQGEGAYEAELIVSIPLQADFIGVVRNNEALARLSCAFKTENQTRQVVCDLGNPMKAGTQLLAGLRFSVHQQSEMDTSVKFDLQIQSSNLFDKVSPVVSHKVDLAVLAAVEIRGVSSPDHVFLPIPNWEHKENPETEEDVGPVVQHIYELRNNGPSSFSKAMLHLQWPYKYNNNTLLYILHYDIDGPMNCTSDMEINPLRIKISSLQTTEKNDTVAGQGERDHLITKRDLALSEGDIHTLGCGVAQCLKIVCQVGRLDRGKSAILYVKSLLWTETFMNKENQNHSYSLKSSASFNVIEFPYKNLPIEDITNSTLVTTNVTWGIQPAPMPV
# T1 sequence (P18564 22-707 limits assumed): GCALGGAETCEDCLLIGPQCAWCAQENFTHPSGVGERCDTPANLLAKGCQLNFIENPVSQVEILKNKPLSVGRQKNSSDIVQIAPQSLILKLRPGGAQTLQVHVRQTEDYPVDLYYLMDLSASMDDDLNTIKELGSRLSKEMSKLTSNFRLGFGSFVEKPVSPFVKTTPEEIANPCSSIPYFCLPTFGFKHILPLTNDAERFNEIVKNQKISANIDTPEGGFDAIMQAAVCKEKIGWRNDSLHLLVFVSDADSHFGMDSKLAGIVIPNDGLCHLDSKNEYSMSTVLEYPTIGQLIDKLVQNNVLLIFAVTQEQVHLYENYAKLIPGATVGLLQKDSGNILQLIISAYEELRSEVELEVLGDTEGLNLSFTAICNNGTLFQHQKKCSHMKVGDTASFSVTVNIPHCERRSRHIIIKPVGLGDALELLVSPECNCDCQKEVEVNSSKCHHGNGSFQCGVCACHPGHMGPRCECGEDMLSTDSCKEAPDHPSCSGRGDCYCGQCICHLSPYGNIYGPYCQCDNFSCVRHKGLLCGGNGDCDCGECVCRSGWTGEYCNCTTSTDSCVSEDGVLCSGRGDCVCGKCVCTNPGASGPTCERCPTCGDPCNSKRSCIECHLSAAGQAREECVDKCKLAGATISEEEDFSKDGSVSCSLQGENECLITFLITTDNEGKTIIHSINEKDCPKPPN
row,IC50 [nM],Structure (SMILES)
1,349,"COc1ccc([C@H](CC(=O)O)NC(=O)c2cn(CCc3ccc4c(n3)NCCC4)nc2CO)cc1F [Example 2, (S)-3-(3-Fluoro-4-methoxyphenyl)-3-(3-(hydroxymethyl)-1-(2-(5,6,7,8-tetrahydro-1,8-naphthyridin-2-yl)ethyl)-1H-pyrazole-4-carboxamido)propanoic acid]"
2,312,CC(C)(C)OCc1nn(CCc2ccc3c(n2)NCCC3)cc1C(=O)NC(CC(=O)O)c1cc(Cl)cc(Cl)c1 (centres unmarked) [Example 3]
3,141,"O=C(O)CC(NC(=O)c1cn(CCc2ccc3c(n2)NCCC3)nc1CO)c1cc(Cl)cc(Cl)c1 (centres unmarked) [Example 4, 3-(3,5-Dichlorophenyl)-3-(3-(hydroxymethyl)-1-(2-(5,6,7,8-tetrahydro-1,8-naphthyridin-2-yl)ethyl)-1H-pyrazole-4-carboxamido)propanoic acid]"
4,178,"O=C(O)CC(NC(=O)c1cn(CCCc2ccc3c(n2)NCCC3)nc1CO)c1cc(Cl)cc(Cl)c1 (centres unmarked) [Example 6, 3-(3,5-Dichlorophenyl)-3-(3-(hydroxymethyl)-1-(3-(5,6,7,8-tetrahydro-1,8-naphthyridin-2-yl)propyl)-1H-pyrazole-4-carboxamido)propanoic acid]"
5,63,"O=C(O)C[C@H](NC(=O)c1cnn(CCCNc2ccccn2)c1)c1cc(Cl)cc(Cl)c1 [Example 7, (S)-3-(3,5-Dichlorophenyl)-3-(1-(3-(pyridin-2-ylamino)propyl)-1H-pyrazole-4-carboxamido)propanoic acid]"
6,41,"O=C(O)C[C@H](NC(=O)c1cnn(CCCNC2=NCCN2)c1)c1cc(Cl)cc(Cl)c1 [Example 8, (S)-3-(3,5-Dichlorophenyl)-3-(1-(3-((4,5-dihydro-1H-imidazol-2-yl)amino)propyl)-1H-pyrazole-4-carboxamido)propanoic acid]"
7,22,"O=C(O)CC(NC(=O)c1cnn(CCc2ccc3c(n2)NCCC3)c1CO)c1cccc(Cl)c1 (centres unmarked) [Example 9, 3-(3-Chlorophenyl)-3-(5-(hydroxymethyl)-1-(2-(5,6,7,8-tetrahydro-1,8-naphthyridin-2-yl)ethyl)-1H-pyrazole-4-carboxamido)propanoic acid]"
8,121,"N[C@@H](CNC(=O)c1cnn(CCc2ccc3c(n2)NCCC3)c1)C(=O)O [Example 11, (S)-2-Amino-3-(1-(2-(5,6,7,8-tetrahydro-1,8-naphthyridin-2-yl)ethyl)-1H-pyrazole-4-carboxamido)propanoic acid]"
9,7.1,"O=C(O)C[C@H](NC(=O)c1cnn(CCc2ccc3c(n2)NCCC3)n1)c1cc(Cl)cc(Cl)c1 [Example 13, (S)-3-(3,5-Dichlorophenyl)-3-(2-(2-(5,6,7,8-tetrahydro-1,8-naphthyridin-2-yl)ethyl)-2H-1,2,3-triazole-4-carboxamido)propanoic acid]"
10,2210,"Cc1nc2c(cc1Cn1ncc(C(=O)N[C@@H](CC(=O)O)c3cc(Cl)cc(Cl)c3)n1)CCCN2 [Example 14, (S)-3-(3,5-Dichlorophenyl)-3-(2-((2-methyl-5,6,7,8-tetrahydro-1,8-naphthyridin-3-yl)methyl)-2H-1,2,3-triazole-4-carboxamido)propanoic acid]"
11,0.9,"Cc1cc(C)c(C(=O)N[C@@H](CNC(=O)c2cnn(CCc3ccc4c(n3)NCCC4)c2)C(=O)O)c(C)c1 [Example 15, (S)-3-(1-(2-(5,6,7,8-Tetrahydro-1,8-naphthyridin-2-yl)ethyl)-1H-pyrazole-4-carboxamido)-2-(2,4,6-trimethylbenzamido)propanoic acid]"
12,4.2,"O=C(O)C[C@H](NC(=O)c1cnn(CCc2ccc3c(n2)NCCC3)c1)c1cc(Cl)cc(Cl)c1 [Example 16, (S)-3-(3,5-Dichlorophenyl)-3-(1-(2-(5,6,7,8-tetrahydro-1,8-naphthyridin-2-yl)ethyl)-1H-pyrazole-4-carboxamido)propanoic acid]"
13,363,"CCN(C(=O)c1cnn(CCc2ccc3c(n2)NCCC3)c1)C(CC(=O)O)c1ccc(OC)nc1 (centres unmarked) [Example 17, 3-(N-Ethyl-1-(2-(5,6,7,8-tetrahydro-1,8-naphthyridin-2-yl)ethyl)-1H-pyrazole-4-carboxamido)-3-(6-methoxypyridin-3-yl)propanoic acid]"
14,13,COc1ccc([C@H](CC(=O)O)N(C)C(=O)c2cnn(CCc3ccc4c(n3)NCCC4)c2)cc1F [Example 18]
15,1.3,"COc1ccc(S(=O)(=O)N[C@@H](CNC(=O)c2cnn(CCc3ccc4c(n3)NCCC4)c2)C(=O)O)cc1 [Example 19, (S)-2-((4-Methoxyphenyl)sulfonamido)-3-(1-(2-(5,6,7,8-tetrahydro-1,8-naphthyridin-2-yl)ethyl)-1H-pyrazole-4-carboxamido)propanoic acid]"
16,1.4,O=C(NC[C@@H](NC(=O)[C@@H]1CCCN1S(=O)(=O)c1ccccc1)C(=O)O)c1cnn(CCc2ccc3c(n2)NCCC3)c1 [Example 21]
17,1.9,CC(C)(C)c1cc(Br)cc([C@H](CC(=O)O)NC(=O)c2cnn(CCc3ccc4c(n3)NCCC4)c2)c1 [Example 22]
18,2.3,Cc1ccc(Oc2cccc(C(CC(=O)O)NC(=O)c3cnn(CCc4ccc5c(n4)NCCC5)c3COC(C)(C)C)c2)cc1 (centres unmarked) [Example 23]
19,3.1,O=C(O)CC(NC(=O)c1cnn(CCc2ccc3c(n2)NCCC3)c1)c1ccc(Cl)c(C(F)(F)F)c1 (centres unmarked) [Example 24]
20,3.1,CN(C(=O)c1cnn(CCc2ccc3c(n2)NCCC3)c1)[C@@H](CC(=O)O)c1cc(Cl)cc(Cl)c1 [Example 25]
21,5,CC(C)(C)c1cc(Br)cc([C@H](CC(=O)O)NC(=O)c2cnn(CCc3ccc4c(n3)NCCC4)c2CO)c1 [Example 26]

row,IC50 [nM],Structure (SMILES)
1,5.1,Cc1ccc(Oc2cccc(C(CC(=O)O)NC(=O)c3cnn(CCc4ccc5c(n4)NCCC5)c3CO)c2)cc1 (centres unmarked) [Example 27]
2,6.1,Cc1cc(C)c(S(=O)(=O)N[C@H](CNC(=O)c2cnn(CCCc3ccc4c(n3)NCCC4)c2)C(=O)O)c(C)c1 [Example 28]
3,6.4,O=C(O)C[C@H](NC(=O)c1cnn(CCc2ccc3c(n2)NCCC3)c1CO)c1cc(Cl)cc(Cl)c1 [Example 29]
4,7.3,O=C(O)CC(NC(=O)c1cnn(CCc2ccc3c(n2)NCCC3)c1)c1cc(Cl)cc(Cl)c1 (centres unmarked) [Example 30]
5,7.6,CN(C(=O)c1cnn(CCc2ccc3c(n2)NCCC3)c1)C(CC(=O)O)c1cc(Cl)cc(Cl)c1 (centres unmarked) [Example 32]
6,9.4,COc1ccc([C@H](CC(=O)O)NC(=O)c2cnn(CCc3ccc4c(n3)NCCC4)c2CO)cc1F [Example 33]
7,10,CC(C)(C)OCc1c(C(=O)NC(CC(=O)O)c2cccc(-n3cccc3)c2)cnn1CCc1ccc2c(n1)NCCC2 (centres unmarked) [Example 34]
8,10,O=C(O)CC(NC(=O)c1cnn(CCc2ccc3c(n2)NCCC3)c1CO)c1ccc(Cl)c(C(F)(F)F)c1 (centres unmarked) [Example 35]
9,11,O=C(O)CC(NC(=O)c1cnn(CCc2ccc3c(n2)NCCC3)c1CO)c1cccc(OC(F)(F)F)c1 (centres unmarked) [Example 36]
10,12,Cc1cc(C)n(-c2cccc(C(CC(=O)O)NC(=O)c3cnn(CCc4ccc5c(n4)NCCC5)c3COC(C)(C)C)c2)n1 (centres unmarked) [Example 37]
11,13,O=C(O)CC(NC(=O)c1cnn(CCc2ccc3c(n2)NCCC3)c1CO)c1cccc(Oc2cc(Cl)cc(Cl)c2)c1 (centres unmarked) [Example 38]
12,15,COc1ccc([C@H](CC(=O)O)NC(=O)c2cnn(CCc3ccc4c(n3)NCCC4)c2)cc1F [Example 39]
13,14,CN(C(=O)c1cnn(CCc2ccc3c(n2)NCCC3)c1CO)C(CC(=O)O)c1cc(Cl)cc(Cl)c1 (centres unmarked) [Example 40]
14,14,CC(C)(C)OCc1c(C(=O)NC(CC(=O)O)c2cc(Cl)cc(Cl)c2)cnn1CCc1ccc2c(n1)NCCC2 (centres unmarked) [Example 41]
15,16,Cc1cc(C)n(-c2cccc(C(CC(=O)O)NC(=O)c3cnn(CCc4ccc5c(n4)NCCC5)c3CO)c2)n1 (centres unmarked) [Example 42]
16,16,COc1ccc([C@H](CC(=O)O)NC(=O)c2cnn(CCc3ccc4c(n3)NCCC4)c2CO)cn1 [Example 43]
17,16,O=C(O)CC(NC(=O)c1cnn(CCc2ccc3c(n2)NCCC3)c1CO)c1cccc(C(F)(F)F)c1 (centres unmarked) [Example 44]
18,18,CN(C(=O)c1cnn(CCCc2ccc3c(n2)NCCC3)c1)[C@@H](CC(=O)O)c1cc(Cl)cc(Cl)c1 [Example 45]
19,21,COc1ccc([C@H](CC(=O)O)NC(=O)c2cnn(CCc3ccc4c(n3)NCCC4)c2)cn1 [Example 46]
20,22,O=C(O)CC(NC(=O)c1cnn(CCc2ccc3c(n2)NCCC3)c1CO)c1cc(Cl)cc(Cl)c1 (centres unmarked) [Example 47]
21,22,CN(C(=O)c1cn(CCc2ccc3c(n2)NCCC3)nc1C(F)(F)F)[C@@H](CC(=O)O)c1cc(Cl)cc(Cl)c1 [Example 48]

row,Structure (SMILES),IC50 [nM]
1,"COc1ccc([C@H](CC(=O)O)NC(=O)c2cn(CCc3ccc4c(n3)NCCC4)nc2COC(C)(C)C)cc1F [Example 1, (S)-3-(3-(tert-Butoxymethyl)-1-(2-(5,6,7,8-tetrahydro-1,8-naphthyridin-2-yl)ethyl)-1H-pyrazole-4-carboxamido)-3-(3-fluoro-4-methoxyphenyl)propanoic acid]",771
2,"CC(C)(C)OCc1nn(CCCc2ccc3c(n2)NCCC3)cc1C(=O)NC(CC(=O)O)c1cc(Cl)cc(Cl)c1 (centres unmarked) [Example 5, 3-(3-(tert-Butoxymethyl)-1-(3-(5,6,7,8-tetrahydro-1,8-naphthyridin-2-yl)propyl)-1H-pyrazole-4-carboxamido)-3-(3,5-dichlorophenyl)propanoic acid]",159
